This passage reports Ki and IC50 results from US8236845B2, “Heterocyclyl-substituted-tetrahydro-naphthalen-amine derivatives, their preparation and use as medicaments” (Laboratorios del Dr. Esteve, S.A., priority 2007, dated 2012).

Molecules are shown by their SMILES. Where a name gives a salt, the structure may show the parent alone.

For this test, the target named is T1, Cloned Human Serotonin Receptor, Subtype 7 (h5HT7) (Homo sapiens, UniProt P34969).
T1 construct: purchased PerkinElmer 6120512; host or cells: CHO cells (membranes coated on Basic FlashPlate, Cat. SMP200)
T1 sequence (P34969 whole entry): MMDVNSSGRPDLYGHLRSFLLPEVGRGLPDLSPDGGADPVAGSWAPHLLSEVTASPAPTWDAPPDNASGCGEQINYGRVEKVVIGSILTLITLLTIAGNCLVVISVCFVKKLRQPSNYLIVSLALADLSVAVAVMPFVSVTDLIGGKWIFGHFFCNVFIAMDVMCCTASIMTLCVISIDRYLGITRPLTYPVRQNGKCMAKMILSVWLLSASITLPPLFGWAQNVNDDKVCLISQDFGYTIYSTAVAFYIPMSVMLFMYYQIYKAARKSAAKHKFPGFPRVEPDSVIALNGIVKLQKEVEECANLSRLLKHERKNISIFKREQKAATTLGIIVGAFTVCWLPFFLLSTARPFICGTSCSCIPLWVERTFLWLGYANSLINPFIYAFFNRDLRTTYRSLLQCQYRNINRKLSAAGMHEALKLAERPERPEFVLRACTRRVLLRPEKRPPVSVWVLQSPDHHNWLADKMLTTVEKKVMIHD
Briefly: Radioligand binding assay, [125I]LSD, cloned human 5-HT7 receptor expressed in CHO cells. Conditions: radioligand [125I]LSD 0.82 nM. How it is done: Radioligand binding assays were performed using the Cloned Human Serotonin Receptor, Subtype 7 (h5HT7), expressed in CHO cells, coated on Flashplate (Basic FlashPlate Cat.: SMP200) from PerkinElmer (Cat.: 6120512). The protocol assay was essentially the recommended protocol in the Technical Data Sheet by PerkinEmer Life and Analytical Sciences. The Mass membrane protein/well was typically 12 μg and the Receptor/well was about 9-10 fmoles. The Flashplate were let equilibrate at room temperature for one hour before the addition of the components of the assay mixture. The binding buffer was: 50 mM Tris-HCl, pH 7.4, containing 10 mM MgCl2, 0.5 mM EDTA and 0.5% BSA. The radioligand was [^125I]LSD at a final concentration of 0.82 nM. Nonspecific binding was determined with 50 μM of Clozapine. The assay volume was 25 μl. TopSeal-A were applied onto Flashplate microplates and they were incubated at room temperature for 240 minutes in darkness. The radioactivity were quantified by liquid scintillation spectrophotometry (Wallac 1450 Microbeta Trilux) with a count delay of 4 minutes prior to counting and a counting time of 30 seconds per well. Competition binding data were analyzed by using the LIGAND program (Munson and Rodbard, LIGAND: A versatile, computerized approach for characterization of ligand-binding systems. Anal. Biochem. 107: 220-239, 1980) and assays were performed in triplicate determinations for each point.
In general, Ki refers to a measure of affinity in units of concentration, obtained from inhibition or displacement. Take `COc1ncccc1-c1cccc2c1CCC(N(C)C)C2` (centres unmarked) [AI, [5-(2-Methoxy-pyridin-3-yl)-1,2,3,4-tetrahydro-naphthalen-2-yl]-dimethyl-amine]: the Ki came out at 61.6 ± 5.8 nM.

`CCN(C)C1CCc2c(cccc2-c2c(C)nn(C)c2C)C1` (centres unmarked) [T, Ethyl-methyl-[5-(1,3,5-trimethyl-1H-pyrazol-4-yl)-1,2,3,4-tetrahydro-naphthalen-2-yl]-amine] yielded a Ki of 10.3 ± 0.4 nM.

`CCN(CC)C1CCc2c(cccc2-c2c(C)nn(C)c2C)C1` (centres unmarked) [Example S, Diethyl-[5-(1,3,5-trimethyl-1H-pyrazol-4-yl)-1,2,3,4-tetrahydro-naphthalen-2-yl]-amine]: the affinity, expressed as Ki, was 130 nM.

`Cc1nn(C)c(C)c1-c1cccc2c1CC[C@H](N(C)C(C)C)C2` [Example AB, (2S)-Isopropyl-methyl-[5-(1,3,5-trimethyl-1H-pyrazol-4-yl)-1,2,3,4-tetrahydro-naphthalen-2-yl]-amine]: affinity was put at a Ki of 644 ± 63.5 nM.

The compound `CCCN(C)C1CCc2c(cccc2-c2c(C)nn(C)c2C)C1` (centres unmarked) [R, Methyl-propyl-[5-(1,3,5-trimethyl-1H-pyrazol-4-yl)-1,2,3,4-tetrahydro-naphthalen-2-yl]-amine] gave an inhibition constant Ki of 9.1 ± 1.5 nM.

Take `COc1cccc(Cl)c1-c1cccc2c1CCC(N(C)C)C2` (centres unmarked) [AH, [5-(2-Chloro-6-methoxy-phenyl)-1,2,3,4-tetrahydro-naphthalen-2-yl]-dimethyl-amine]: the Ki came to 11.6 ± 3 nM.

`COc1ccccc1-c1cccc2c1CCC(N(C)C)C2` (centres unmarked) [AF, [5-(2-Methoxy-phenyl)-1,2,3,4-tetrahydro-naphthalen-2-yl]-dimethyl-amine]: affinity was put at a Ki of 25.8 ± 4.6 nM.

`CCCN(C(C)C)[C@H]1CCc2c(cccc2-c2c(C)nn(C)c2C)C1` [AC, (2S)-Isopropyl-propyl-[5-(1,3,5-trimethyl-1H-pyrazol-4-yl)-1,2,3,4-tetrahydro-naphthalen-2-yl]-amine] displayed a Ki of 227 ± 11.3 nM.

A word on the IC50: it is the concentration needed to halve the response being measured. High values mean weaker potency, low ones greater potency. On to `Cc1nn(C)c(C)c1-c1cccc2c1CC[C@@H](N(C)C)C2` [Example J, (2R)-Dimethyl-[5-(1,3,5-trimethyl-1H-pyrazol-4-yl)-1,2,3,4-tetrahydro-naphthalen-2-yl]-amine dihydrochloride], for which the IC50 was determined as 178 nM.

Turning to `Cc1nn(C)c(C)c1-c1cccc2c1CCC(N1CCCC1)C2` (centres unmarked) [O, 1,3,5-Trimethyl-4-(6-pyrrolidin-1-yl-5,6,7,8-tetrahydro-naphthalen-1-yl)-1H-pyrazole], the Ki is 96.3 ± 2 nM.

The compound `Cc1n[nH]c(C)c1-c1cccc2c1CC[C@H](N(C)C)C2` [Example L, (2S)-[5-(3,5-Dimethyl-1H-pyrazol-4-yl)-1,2,3,4-tetrahydro-naphthalen-2-yl]-dimethyl-amine dihydrochloride] displayed an IC50 of 18.4 ± 2.5 nM.
